Experimental data: PMC7211193, “Evaluation of absorption, distribution, metabolism, and excretion of [^14C]-rucaparib, a poly(ADP-ribose) polymerase inhibitor, in patients with advanced solid tumors” (Investigational New Drugs, 2019)
Where “and” joins values, the source holds several entries; their conditions need not be identical. Equal entries are not always repeated.

Legend:
Format in all cases: in vivo, human
[1] = Plasma pharmacokinetics of unchanged rucaparib (LC-MS/MS) after a single oral dose of [14C]-rucaparib 600 mg
Procedure: (§1) Six patients received a single oral dose of [^14C]-rucaparib 600 mg (approximately 5.18 MBq or 140 μCi) on day 1 after fasting for 10 h and were confined at the study site for the collection of blood samples and excreta for a maximum of 12 days.
(§2) Blood samples were collected in K2 ethylenediaminetetraacetic acid (K2-EDTA) tubes at the following time points: 0 (predose), 1, 2, 3, 4, 8, 12, 24, 48, 72, 96, 120, and 144 h after administration. Blood samples were taken via an indwelling intravenous catheter or by direct vein puncture into appropriate tubes. Aliquots of blood samples were centrifuged at 1600–2000×g for 10 min at 4 °C, and supernatants were collected for plasma samples. All plasma and blood samples were stored at −70 °C until analysis. Plasma and blood samples were evaluated for total radioactivity (TRA) by liquid scintillation (LSC), parent drug concentrations by liquid chromatography (LC) with tandem mass spectrometry (MS/MS) analyses, and metabolite profiling by LC coupled to diode array ultraviolet (UV) detection and MS or radioactivity detection.
Plasma concentrations of rucaparib were determined by Q^2 Solutions (Ithaca, NY, USA) using a validated LC-MS/MS method as previously described. The concentration range for quantitation was 5–10,000 ng/mL.
(§3) Blood and plasma TRA data and the plasma concentration of rucaparib were used to determine the Cmax, tmax, AUC from time zero to time of last measurable concentration (AUC0-t), and AUC from time zero to infinity (AUC0-inf), apparent volume of distribution (Vd/F), apparent clearance (CL/F), and terminal half-life (t1/2). Phoenix WinNonlin software version 6.3 or higher (Certara, Princeton, NJ, USA) was used to run a noncompartmental method analysis on the PK data.

[2] = Total radioactivity (TRA) pharmacokinetics in plasma and blood by liquid scintillation counting; conditions: for Cmax, total radioactivity in plasma: patients N = 6
Procedure: as §1, §2
TRA analysis was performed on a Liquid Scintillation Counter Tri-Carb Model 3100TR (PerkinElmer). Aliquots of blood (300 μL), plasma (250 μL), and urine (1 mL) were transferred to scintillation vials. Blood samples were incubated at ≥60 °C with SOLVABLE (1 mL). After cooling to room temperature, EDTA (0.1 M, 100 μL) and hydrogen peroxide (225 μL) were added to dissolve blood cells, reduce foaming, and decrease color intensity. Finally, after incubation at ≥45 °C and ≥60 °C, Ultima Gold (≥5-fold) was added, and the samples were analyzed with LSC. For urine samples, Ultima Gold (≥5-fold) was added, and the samples were analyzed with LSC.
as §3

[3] = Metabolite profiling in pooled urine (LC-MS-Radiomatic); conditions: for % Dose in urine: pooled urine, % of administered dose
Procedure: For each patient, urine samples from different collection intervals were pooled in proportion to their sample weight in order to obtain a pooled sample covering 90% of the TRA in urine. Pooled urine samples were lyophilized and then extracted at least twice with acetonitrile. The obtained supernatant was evaporated to dryness, and the dried residues were reconstituted in 20% acetonitrile in water containing 0.1% TFA. An aliquot of the supernatant was analyzed for TRA to determine extraction efficiency, and the mean recovery was ≈70%. Aliquots of the supernatants were injected into the HPLC coupled to UV and radioactive detectors to obtain metabolite profiles. The samples were also analyzed using LC-MS for metabolite identification.
Metabolite profiling and identification were performed on an LC system (Agilent) coupled to an LTQ Orbitrap mass spectrometer (Thermo Electron, Waltham, MA, USA) in combination with offline TopCount (LC-MS-TopCount) or online Radiomatic 625TR (LC-MS-Radiomatic; PerkinElmer). Proposed structures of the metabolites were based on accurate mass (<5 ppm) and comparison of mass spectral data of parent compound rucaparib and metabolite standard M324. The Radiomatic 625TR flow detector, equipped with a 200 μL flow cell, was operated using scintillation cocktail (Ultima-Flo M) delivered at a flow rate of 1 mL/min. Chromatography was done using a Phenomenex (Torrance, CA, USA) Luna Phenyl-Hexyl column (250 × 2 mm, 5 μm, 100 Å) at ambient temperature during the sample analysis. The mobile phase was (A) 0.05% TFA in water and (B) 0.05% TFA in acetonitrile, with a 0.2 mL/min flow rate. The gradient was as follows: 5% B over 2.1 min, to 20% B in 1.0 min, to 35% B in 16.9 min, isocratic at 35% B for 5 min, to 95% B over 5 min, and reduced to 5% B over 1 min, with total run time 45 min.
The abundance of unchanged rucaparib and metabolites identified in plasma, urine, and feces was determined as a percentage of the TRA in the analyzed samples. Percentage of the administered dose of rucaparib and metabolites was calculated in urine and feces (formula A). The concentration of rucaparib and its metabolites in plasma (ng Eq h/mL) was calculated based on the specific activity, TRA, and percentage of peaks (formula B). The AUC0-24h value of rucaparib and its major metabolite M324 in plasma was calculated using both Hamilton method (formula C) and linear trapezoidal method (formula D). • (A) %Doseofmetabolite=TRAinurineorfeces(dpm)÷TRAinadministereddose(dpm)×%metabolitesinmatrix • (B) Metaboliteconcentrationsinplasma(ngEq/mL)=TRAinplasma(dpm/mL)specificactivity(ngEq/dpm)×%metabolitesinthematrix • (C) Hamiltonmethod:AUC0−24h(ngEqh/mL)=concentrationinHamilton(AUC0−24h)pooledplasma(ngEq/mL)×24(h) • (D) Lineartrapezoidalmethod:AUC0−24h(ngEqh/mL)=C1h/2×1h+C1h+C4h/2×(4h−1h)+C4h+C8h/2×(8h−4h)+C8h+C24h/2×(24h−8h)

[4] = unchanged rucaparib by LC-MS/MS, single oral 600 mg, N = 6, mean ± SD
[5] = single oral [14C]-rucaparib 600 mg, N = 6, mean ± SD
[6] = single oral [14C]-rucaparib 600 mg, N = 6, mean ± SD, listed as rucaparib
[7] = single oral [14C]-rucaparib 600 mg, N = 6, median (range)

CNCc1ccc(-c2[nH]c3cc(F)cc4c3c2CCNC4=O)cc1 [Rucaparib, rucaparib]
AUC0-24h ratio of unlabeled rucaparib to TRA in plasma ([1]; LC-MS/MS versus LSC): 0.412
AUC(0-inf) ([1]; human, plasma, unchanged rucaparib by LC-MS/MS, single oral 600 mg, N = 6, mean ± SD, read-out: AUC0-inf, rucaparib concentration in plasma): 9340 ± 3480 ng·h/mL
AUC(0-t) ([1]; human, plasma, unchanged rucaparib by LC-MS/MS, single oral 600 mg, N = 6, mean ± SD, read-out: AUC0-t, rucaparib concentration in plasma): 8950 ± 3230 ng·h/mL
Cmax ([1]; human, plasma, unchanged rucaparib by LC-MS/MS, single oral 600 mg, N = 6, mean ± SD, read-out: Cmax, rucaparib concentration in plasma): 428 ± 154 ng/mL
Vd/F ([1]; human, plasma, unchanged rucaparib by LC-MS/MS, single oral 600 mg, N = 6, mean ± SD, read-out: Vd/F, rucaparib concentration in plasma): 2300 ± 490 L
AUC0-24h/AUC0-inf ratio, plasma unchanged rucaparib ([1]; in vivo): 0.537
Mean CL/F of rucaparib relative to that of TRA ([1]; plasma): approximately 3.8 fold
Mean Vd/F of rucaparib relative to that of TRA ([1]; plasma): ~2.8 fold
CL/F, rucaparib concentration in plasma [1, 4]: 73.9 ± 45.5 L/h
t1/2, rucaparib concentration in plasma [1, 4]: 25.9 ± 10.1 h
t1/2, rucaparib concentration in plasma ([1]; unchanged rucaparib by LC-MS/MS, single oral 600 mg, N = 6, mean ± SD, listed as rucaparib): > 25 h
tmax, rucaparib concentration in plasma ([1]; unchanged rucaparib by LC-MS/MS, single oral 600 mg, N = 6, median (range)): 4 (0.933–8.00) h
AUC0-24h/AUC0-inf ratio, blood TRA ([2]; in vivo): 0.563
AUC0-24h/AUC0-inf ratio, plasma TRA ([2]; in vivo): 0.461
AUC0-inf, total radioactivity in blood [2, 5]: 25,500 ± 5510 ng Eq h/mL
AUC0-inf, total radioactivity in plasma [2, 5]: 30,000 ± 7810 ng Eq h/mL
AUC0-t, total radioactivity in blood [2, 5]: 18,100 ± 5460 ng Eq h/mL
AUC0-t, total radioactivity in plasma [2, 5]: 24,100 ± 8580 ng Eq h/mL
Blood to plasma ratio of total radioactivity, AUC0-inf [2, 5]: 0.781 ± 0.041
Blood to plasma ratio of total radioactivity, Cmax [2, 5]: 1.00 ± 0.12
CL/F, total radioactivity in blood [2, 5]: 22.6 ± 2.22 L/h
CL/F, total radioactivity in plasma [2, 5]: 19.6 ± 4.83 L/h
Cmax, total radioactivity in blood [2, 5]: 882 ± 355 ng Eq/mL
Vd/F, total radioactivity in blood [2, 5]: 911 ± 246 L
Vd/F, total radioactivity in plasma [2, 5]: 814 ± 129 L
t1/2, total radioactivity in blood [2, 5]: 28.3 ± 8.49 h
t1/2, total radioactivity in plasma [2, 5]: 30.4 ± 8.89 h
Blood to plasma ratio of total radioactivity, Cmax [2, 6]: 1.0
t1/2, total radioactivity in blood [2, 6]: > 25 h
t1/2, total radioactivity in plasma [2, 6]: > 25 h and 30.4 h
tmax, total radioactivity in blood [2, 7]: 4 (0.933–8.00) h
tmax, total radioactivity in plasma [2, 7]: 4 (0.933–8.00) h
tmax, total radioactivity in blood ([2]; single oral [14C]-rucaparib 600 mg, N = 6, median (range), listed as [^14C]-rucaparib): approximately 4 h
tmax, total radioactivity in blood ([2]; single oral [14C]-rucaparib 600 mg, N = 6, median (range), listed as rucaparib): 4 h
Cmax, total radioactivity in plasma ([2]; single oral [14C]-rucaparib 600 mg, mean ± SD): 880 ± 309 ng Eq/mL
Cmax, total radioactivity in plasma ([2]; single oral [14C]-rucaparib 600 mg, mean ± SD, listed as rucaparib): 880 ng Eq/mL
% of dose in pooled urine, Patient 01 ([3]; Patient 01): 14.3 % dose
% of dose in pooled urine, Patient 03 ([3]; Patient 03): 5.03 % dose
% of dose in pooled urine, Patient 05 ([3]; Patient 05): 2.85 % dose
% of dose in pooled urine, Patient 06 ([3]; Patient 06): 5.96 % dose
% of dose in pooled urine, Patient 08 ([3]; Patient 08): 10.7 % dose
% of dose in pooled urine, Patient 09 ([3]; Patient 09): 6.77 % dose
% Peak (of TRA) in urine ([3]; pooled urine covering 90% of urine radioactivity, N = 6, mean ± SD): 44.9 ± 15.6%
% Dose in urine ([3]; N = 6, mean ± SD): 7.59 ± 4.16%
% Dose in urine ([3]; N = 6, mean ± SD, listed as rucaparib): ≈ 7.6% and > 7%
